Assay results: PMC6522510 (Nature Communications, 2019)

Key:
MOLM-13 [1] = experiment: Secondary dose-response HTS, Cell Titer Glo; assay type: cell-based, human; settings: Homo sapiens; secondary high-throughput screen; MOLM-13; read-out: average effective concentration, MOLM-13
U937 [2] = experiment: Secondary dose-response HTS, Cell Titer Glo; assay type: cell-based, human; settings: Homo sapiens
MV4-11 [3] = experiment: cells; parameters: species or system AML cell lines (8); Secondary HTS, 10-point dose-response in triplicate, Cell Titer Glo viability, four-parameter fit EC50; settings: Homo sapiens, MV4-11, 72 h, read-out: MV4-11
CHRF288-11 [4] = experiment: cells; parameters: species or system AML cell lines (8); Secondary HTS, 10-point dose-response in triplicate, Cell Titer Glo viability, four-parameter fit EC50; settings: 72 h, read-out: CHRF288-11
CMS [5] = experiment: cells; parameters: species or system AML cell lines (8); Secondary HTS, 10-point dose-response in triplicate, Cell Titer Glo viability, four-parameter fit EC50; settings: 72 h, read-out: CMS
M07e [6] = experiment: cells; parameters: species or system AML cell lines (8); Secondary HTS, 10-point dose-response in triplicate, Cell Titer Glo viability, four-parameter fit EC50; settings: M-07e, 72 h, read-out: M07e
ML-2 [7] = experiment: cells; parameters: species or system AML cell lines (8); Secondary HTS, 10-point dose-response in triplicate, Cell Titer Glo viability, four-parameter fit EC50; settings: Homo sapiens, ML-2, 72 h, read-out: ML-2
MOLM-13 [8] = experiment: cells; parameters: species or system AML cell lines (8); Secondary HTS, 10-point dose-response in triplicate, Cell Titer Glo viability, four-parameter fit EC50; settings: Homo sapiens, MOLM-13, 72 h, read-out: MOLM-13
U937 [9] = experiment: cells; parameters: species or system AML cell lines (8); Secondary HTS, 10-point dose-response in triplicate, Cell Titer Glo viability, four-parameter fit EC50; settings: Homo sapiens, U-937, 72 h, read-out: U937
CHRF288-11 [10] = experiment: Secondary dose-response HTS, Cell Titer Glo; assay type: cell-based, human; settings: Homo sapiens, HTS; secondary high-throughput screen; CHRF288-11; read-out: average effective concentration, CHRF288-11
CMS [11] = experiment: Secondary dose-response HTS, Cell Titer Glo; assay type: cell-based, human; settings: Homo sapiens, HTS, read-out: average effective concentration, CMS
M07e [12] = experiment: Secondary dose-response HTS, Cell Titer Glo; assay type: cell-based, human; settings: Homo sapiens, M-07e; secondary high-throughput screen; M07e; read-out: average effective concentration, M07e
ML2 = experiment: Secondary dose-response HTS, Cell Titer Glo; assay type: cell-based, human; settings: Homo sapiens; secondary high-throughput screen; ML-2; read-out: average effective concentration, ML-2
CMK [13] = experiment: cells; parameters: species or system AML cell lines (8); Secondary HTS, 10-point dose-response in triplicate, Cell Titer Glo viability, four-parameter fit EC50; settings: Homo sapiens, CMK, 72 h, read-out: CMK
CHRF288-11 [14] = test system: CHRF288-11; parameters: species or system AML cell lines (8); Primary HTS, single concentration about 10 uM, Cell Titer Glo viability; log10 luminescence, per cent inhibition relative to cycloheximide control; settings: 72 h, relative to cycloheximide control, log10 luminescence; inhibitor
CMK [15] = test system: CMK; parameters: species or system AML cell lines (8); Primary HTS, single concentration about 10 uM, Cell Titer Glo viability; log10 luminescence, per cent inhibition relative to cycloheximide control; settings: 72 h, relative to cycloheximide control, log10 luminescence; inhibitor
CMS [16] = test system: CMS; parameters: species or system AML cell lines (8); Primary HTS, single concentration about 10 uM, Cell Titer Glo viability; log10 luminescence, per cent inhibition relative to cycloheximide control; settings: 72 h, relative to cycloheximide control, log10 luminescence; inhibitor
M07e [17] = test system: M07e; parameters: species or system AML cell lines (8); Primary HTS, single concentration about 10 uM, Cell Titer Glo viability; log10 luminescence, per cent inhibition relative to cycloheximide control; settings: 72 h, relative to cycloheximide control, log10 luminescence; inhibitor
ML-2 [18] = test system: ML-2; parameters: species or system AML cell lines (8); Primary HTS, single concentration about 10 uM, Cell Titer Glo viability; log10 luminescence, per cent inhibition relative to cycloheximide control; settings: 72 h, relative to cycloheximide control, log10 luminescence; inhibitor
MOLM-13 [19] = test system: MOLM-13; parameters: species or system AML cell lines (8); Primary HTS, single concentration about 10 uM, Cell Titer Glo viability; log10 luminescence, per cent inhibition relative to cycloheximide control; settings: 72 h, relative to cycloheximide control, log10 luminescence; inhibitor
MV4-11 [20] = test system: MV4-11; parameters: species or system AML cell lines (8); Primary HTS, single concentration about 10 uM, Cell Titer Glo viability; log10 luminescence, per cent inhibition relative to cycloheximide control; settings: 72 h, relative to cycloheximide control, log10 luminescence; inhibitor
U937 [21] = test system: U937; parameters: species or system AML cell lines (8); Primary HTS, single concentration about 10 uM, Cell Titer Glo viability; log10 luminescence, per cent inhibition relative to cycloheximide control; settings: 72 h, relative to cycloheximide control, log10 luminescence; inhibitor
CMK [22] = experiment: Secondary dose-response HTS, Cell Titer Glo; assay type: cell-based, human; settings: Homo sapiens, CMK, read-out: average effective concentration, CMK
[23] = U-937, secondary high-throughput screen, U937, read-out: average effective concentration, U937

Structure (SMILES)	EC50 (MV4-11 [3]) [µM]	EC50 (CHRF288-11 [4]) [µM]	EC50 (CMS [5]) [µM]	EC50 (M07e [6]) [µM]	EC50 (ML-2 [7]) [µM]	EC50 (MOLM-13 [8]) [µM]	EC50 (U937 [9]) [µM]	further results
O=C(O)CNC(=O)C(=O)O [N-OXALYLGLYCINE]	> 10	> 10	> 10	> 10	> 10			EC50 (MOLM-13 [1]): 2.3 µM; EC50 (U937 [2]; [23]): 3.3 µM
CC(=O)c1c(C)c2cnc(Nc3ccc(N4CCNCC4)cn3)nc2n(C2CCCC2)c1=O [Palbociclib]	> 10	> 10		> 10	> 10	> 10		
CS(=O)(=O)N1CCN(Cc2cc3nc(-c4cccc5[nH]ncc45)nc(N4CCOCC4)c3s2)CC1 [Pictilisib]	> 10	> 10	> 10	> 10	> 10	> 10	> 10	
Cn1cc(CNCC2CCN(c3ncc(C(=O)NO)cn3)CC2)c2ccccc21 [Quisinostat]				0.0042	0.00387		0.0052	
Nc1ncnc2c1ncn2[C@@H]1C=C(CO)[C@@H](O)[C@H]1O [SJ000784248, NEPLANOCIN A]	> 10	6.5	> 10	> 10	5.8	0.36	1.1	
CN(C)C1CCN(C(=O)c2ccc(NC(=O)Nc3ccc(-c4nc(N5CCOCC5)nc(N5CCOCC5)n4)cc3)cc2)CC1 [SJ000784327, PF-05212384]		> 10	> 10	> 10	> 10			
N[C@@H]1C[C@H]1c1cc(F)cc(F)c1OCc1ccccc1 [SJ000785902, S2101]	> 10	> 10	> 10	> 10	> 10	> 10	> 10	
Nc1nccc2c1ncn2[C@@H]1C=C(CO)[C@@H](O)[C@H]1O [SJ000785904, 3-DEAZANEPLANOCIN]	> 10	1.8	> 10	0.001	> 10	0.19	> 10	
COc1cc(C)c2c(Oc3cccc(C(F)(F)F)c3)c(OC)cc(NC(C)CCCN)c2n1 (stereo not shown) [TAFENOQUINE]	> 10					> 10		EC50 (CHRF288-11 [10]): > 10 µM; EC50 (CMS [11]): > 10 µM; EC50 (M07e [12]): > 10 µM; EC50 (ML2): > 10 µM; EC50 (U937 [2]; [23]): > 10 µM; EC50 (CMK [13]): > 10 µM; CHRF288-11 %inh (CHRF288-11 [14]): 134.8%; CMK %inh (CMK [15]): 107.9%; CMS %inh (CMS [16]): 39.64%; M07e %inh (M07e [17]): 38.9%; ML-2 %inh (ML-2 [18]): 62.38%; MOLM-13 %inh (MOLM-13 [19]): 98.6%; MV4-11 %inh (MV4-11 [20]): 34.4%; U937 %inh (U937 [21]): 46.41%
Cn1cncc1[C@@](N)(c1ccc(Cl)cc1)c1ccc2c(c1)c(-c1cccc(Cl)c1)cc(=O)n2C [TIPIFARNIB]	> 10	> 10	> 10	> 10	> 10	> 10		EC50 (CMK [22]): 1.4 µM; EC50 (U937 [2]; U-937, read-out: average effective concentration, U937): 0.54 µM
COc1cc2c(Nc3ccc(Br)cc3F)ncnc2cc1OCC1CCN(C)CC1 [VANDETANIB]	> 10	> 10	> 10	> 10	> 10		> 10	EC50 (MOLM-13 [1]): 10 µM; EC50 (CMK [22]): 5.8 µM
